We go through 14 molecules from PubChem BioAssay (NCI).

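Interpolation was linear, between the two tested concentrations surrounding the appropriate level; five concentrations were tested over 48 hours in 96-well plates. GI50 marks 50% less growth. TGI is the concentration that stops growth completely.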 Where a SMILES comes first, the peptide text is derived from it. [ ]: non-standard residue; d: D form. Some results are limits rather than exact numbers.

What all share (assay): NCI-60 cell line screen, 48 h
Experiment [1] deals with OVCAR-3 ovarian.
Experiment [2] concerns U251 CNS.
Experiment [3] deals with UO-31 renal.
Experiment [4] relates to HCC-2998 colon.
Experiment [5] deals with A549 NSCLC.
For experiment [6], the system named is T-47D breast.
In experiment [7] the test system is BT-549 breast.
The test system of experiment [8] is NCI-H460 lung.
Experiment [9] deals with OVCAR-5 ovarian.
For experiment [10], the system named is SR leukemia.

As to `CN(C)C(=O)N1N[C@H](c2ccccc2)[C@@H]1c1ccccc1`, the TGI in experiment [1], in experiment [2], in experiment [3], in experiment [4], in experiment [5] and in experiment [6] was more than 100 µM each time.
In the case of `CC(C)OC1=C(CC2(C)OCCO2)C(=O)C12OCCO2`, the TGI in experiment [1], in [2], in experiment [7], in experiment [8], in experiment [9] and in [3] was more than 100 µM each time. Besides, the TGI in [5] and in experiment [6] was more than 100 µM each time.
On to `CCn1c(CCCc2nc3c([nH]2)c(=O)n(C)c(=O)n3C)nc2c1c(=O)n(C)c(=O)n2C`, for which the TGI in [1], in experiment [2], in [7], in experiment [8], in [9] and in [3] was more than 100 µM each time. Also, the TGI in experiment [4], in [5] and in experiment [6] was more than 100 µM each time.
Consider `O=C1Sc2ccccc2C(=O)N2CCSC12` (stereo unspecified), for which the TGI in experiment [10], in experiment [1], in experiment [2], in experiment [8], in experiment [9] and in experiment [3] was more than 100 µM throughout. Besides, the TGI in [4] is more than 100 µM.
On to `COc1ccc(C2N(c3ccc(C)c(N=C=O)c3)C(=O)N3C(c4ccc(OC)cc4)N(c4ccc(C)c(N=C=O)c4)C(=O)N23)cc1` (stereo unspecified), for which the TGI in experiment [10], in experiment [1], in experiment [2], in [7], in experiment [8] and in experiment [9] was more than 100 µM throughout. Moreover, the TGI in experiment [3], in [4] and in experiment [5] was more than 100 µM throughout.
`Cc1cc(C)[n+]2c(c1)C=CC2`: the TGI in experiment [1] was 38.6 µM; in experiment [2], more than 100 µM; in experiment [8] it was more than 100 µM; in [9], more than 100 µM; in [3], more than 100 µM; in [4], more than 100 µM. Further, the TGI in experiment [5] is more than 100 µM.
Consider `COCC(C#N)NC1CC(OC2CC(O)(C(=O)CO)Cc3c(O)c4c(c(O)c32)C(=O)c2c(OC)cccc2C4=O)OC(C)C1O` (stereo unspecified), for which the TGI is 0.15 µM in experiment [10]; 3 µM in experiment [1]; 0.86 µM in experiment [2]; 0.653 µM in [7]; 0.189 µM in [8]; 2.54 µM in [9]. For the same molecule, the TGI in experiment [3] amounted to 2.77 µM; in [4], 0.471 µM.
As to `COC(=O)/C1=C/C=C\C[C@@]2(C)CC(c3ccoc3)OC(=O)[C@@H]2CC[C@H]1C` (stereo partly specified), the TGI in experiment [10], in experiment [1], in experiment [2], in experiment [7], in experiment [8] and in [9] was more than 25 µM throughout. Further, the TGI in experiment [3], in experiment [4] and in experiment [5] was more than 25 µM each time.
In the case of `O=C(O)C(Cc1ccccc1)Cc1ccccc1`, the TGI in [1], in [2], in experiment [7], in experiment [8], in experiment [9] and in experiment [3] was more than 100 µM each time. For the same molecule, the TGI in experiment [5] and in experiment [6] was more than 100 µM each time.
As to `O=C1C(Cl)N(c2ccc([N+](=O)[O-])cc2)C1c1c[nH]c2ccccc12` (stereo unspecified), the TGI in experiment [10], in experiment [1], in experiment [2], in [8], in [9] and in [3] was more than 100 µM in each case. Further, the TGI in [5] is more than 100 µM.
`Cc1ccc2sc3c(NCCCN)nc4ccccc4c3c(=O)c2c1`: the GI50 in experiment [1] was 1.82 µM; in experiment [7], 16.5 µM; in experiment [8], 1.84 µM; in experiment [9] it was 1.71 µM; in [3], 1.51 µM; in experiment [4], 1.74 µM. Also, in [6], the GI50 is 1.89 µM. Moreover, the TGI in experiment [1] was 3.32 µM; in experiment [7], 37.4 µM; in experiment [8], 3.56 µM; in experiment [9] it was 3.27 µM; in experiment [3], 2.98 µM; in experiment [4], 3.25 µM. The molecule further yielded a TGI in [6] of 4.57 µM.
As to `COc1cc2c3c(n(C)c(=O)c2cc1OC)-c1cc2c(cc1/C3=C\CCCCl)OCO2`, the TGI in experiment [2] is more than 100 µM; in experiment [7], more than 100 µM; in experiment [8], more than 100 µM; in experiment [9], more than 100 µM; in [3] it was more than 100 µM; in experiment [4], 73.2 µM. Also, the TGI in experiment [5] and in [6] was more than 100 µM in each case.
On to `OC(CCN1CCN(CCOC(c2ccccc2)c2ccccc2)CC1)c1ccccc1` (stereo unspecified), for which the TGI in [1] was 81.1 µM; in experiment [2], 36 µM; in experiment [7], 60.5 µM; in experiment [8], 35.7 µM; in experiment [9], more than 100 µM; in experiment [3], 44 µM. Also, the TGI in experiment [4] is 28.9 µM; in [5], more than 100 µM; in experiment [6] it was 48.8 µM.
Regarding `CC(C)C[C@H](NC(=O)[C@H](CC(C)C)NC(=O)[C@@H](Cc1c[nH]c2ccccc12)NC(=O)[C@H](Cc1ccccc1)NC(=O)[C@@H](Cc1c[nH]c2ccccc12)NC(=O)[C@H](CCC(N)=O)NC(=O)[C@@H](CCC(N)=O)NC(=O)[C@@H]1CCCN1C(=O)[C@@H](CCCCN)NC(=O)[C@H]1CCCN1C(=O)[C@H](N)CCCN=C(N)N)C(N)=O` (H-[dR][dP][dK]P[dQ]Q[dW]F[dW]LL-NH2), the TGI in experiment [1] is more than 100 µM; in experiment [2], more than 93.2 µM; in experiment [8], more than 100 µM; in experiment [9], more than 100 µM; in experiment [3] it was more than 100 µM; in [4] it was more than 100 µM. The same molecule yielded a TGI in [5] of more than 100 µM.
